The results in this text go back to patent US7160887B1, “Aromatic amine derivatives, their production and use” (Takeda Pharmaceutical Company Limited, priority 1998, dated 2007).

Each structure is given as a SMILES string. Counter-ions that a name gives are not always drawn.

For `NCCc1cccc(Oc2cc(Cl)ccc2N(Cc2ccc(-c3ccccc3)cc2)C(=O)CCC(=O)NCc2ccccc2F)c1` (as salt: hydrochloride) [Example 14, N-[2-[3-(2-aminoethyl)phenoxy]-4-chlorophenyl]-N-(4-biphenylmethyl)-N′-(2-fluorobenzyl)succinamide hydrochloride], the melting point lay in the range of 123 to 125 °C.

The melting point is the temperature, or range, at which the solid turns liquid.
